Measured values taken from patent US20140045856A1, “4-Methyl-2,3,5,9,9b-pentaaza-cyclopenta[a]naphthalenes” (BOEHRINGER INGELHEIM INTERNATIONAL GMBH, priority 2012, published 2014).
pIC50: −log10 of the molar value. Read-outs that look alike come from different tables or passages of the source. Blank lines part the entries; values can stand above or below the molecule they belong to.

Tests used:
PDE10 = PDE10 (Homo sapiens, UniProt Q9Y233); experiment: PDE10 assay with fluorescent substrate (IMAP, fluorescence polarization); assay type: biochemical
PDE2A = PDE2A (Homo sapiens, UniProt O00408); experiment: PDE 2A assay with fluorescent substrate (IMAP, fluorescence polarization); assay type: biochemical; details: read-out: PDE2 IC50
Excerpt: c) Phosphodiesterase (PDE) 2A and 10 Assay with Fluorescent Substrate
The PDE reaction cleaves cAMP to AMP. The IMAP system (Molecular Device) using fluorescence polarization (FP) as detection principle was used to measure enzyme activity. A fluorescent labeled cAMP was used as substrate for the reaction, generating a labeled AMP. The fluorescent AMP binds specifically to the large M(III)-based nano-particles which reduces the rotational speed of the substrate and thus increases its polarization.
The inhibition of PDE 2A or 10 enzyme activity was assessed using IMAP-Phosphodiesterase-cAMP fluorescence labeled substrate (Molecular Devices, Order No. R7506), IMAP TR-FRET screening express (Molecular Devices, Order No. R8160, the TR-FRET component will not be used) and PDE 2A or PDE10 protein expressed upon baculovirus infection in SF9 cells. The cells were incubated after infection for ˜3 days and protein production was confirmed by Western Blot. The cells were collected by centrifugation and the pellet frozen in liquid nitrogen before it was resuspended in PBS containing 1% Triton X-100 and protease inhibitors.
All reactions were performed in 384 well plates, Perkin Elmer black optiplates and IMAP reaction buffer with 0.1% Tween20 (kit component)
Compounds were serial diluted in DMSO. With an intermediate dilution step with reaction buffer DMSO concentration was reduced to achieve 1% DMSO in the assay reaction. Setup of the assay started with 10 μl enzyme (˜10 ng/well, depending on prep. batch), 5 μl compound, reaction was started by addition of 5 μl labeled cAMP (30 nM, final concentration), immediately mixed for 15 seconds on a Eppendorf mixmate (2000 rpm) followed by an incubation at room temperature for 90 minutes in the dark. Reaction is stopped by adding of 60 μl binding buffer for FP/cAMP (kit component).
Each assay plate contained wells with vehicle controls (1% DMSO) for the measurement of non-inhibited reaction (=100% control) and wells without enzyme as 0% controls.

hERG channel = hERG channel (Homo sapiens, UniProt Q12809); experiment: hERG channel assay (whole-cell patch clamp, HEK293 cells transfected with hERG cDNA); assay type: cell-based; details: 35° C.
Excerpt: hERG (Human Ether-à-Go-Go-Related Gene)-Channel Assay
hERG channel inhibition of compounds of the present invention has been investigated as follows:
HEK (human embryonic kidney) 293 cells were stably transfected with hERG cDNA. Cells were superfused with a bath solution containing (mM): NaCl (137), KCl (4.0), MgCl2 (1.0), CaCl2 (1.8), Glucose (10), HEPES (10), pH 7.4 with NaOH. Patch pipettes were made from borosilicate glass tubing using a horizontal puller and filled with pipette solution containing (mM): K-aspartate (130), MgCl2 (5.0), EGTA (5.0), K2ATP (4.0), HEPES (10.0), pH 7.2 with KOH. Resistance of the microelectrodes was in the range between 2 and 5 MΩ.
Stimulation and Recording:
Membrane currents were recorded using an EPC-10 patch clamp amplifier and PatchMaster software. hERG-mediated membrane currents were recorded at 35° C., using the whole-cell configuration of the patch-clamp technique. Transfected HEK293 cells were clamped at a holding potential of −60 mV and hERG-mediated inactivating tail currents were elicited using a pulse pattern with fixed amplitudes (activation/inactivation: 40 mV for 2000 ms; recovery: […]; ramp to 40 mV in 2 ms; inactivating tail current: 40 mV for 50 ms) repeated at 15 s intervals. During each inter-pulse interval 4 pulses scaled down by a factor of 0.2 were recorded for a P/n leak subtraction procedure. […] compensation was employed up to a level that safely allowed recording devoid of ringing.
Compound Preparation and Application:
The different concentrations of the test compound were applied sequentially on each of the different cells investigated. A steady state level of baseline current was measured for at least 6 sweeps prior to the application of the first test compound concentration.
The test compound was dissolved in DMSO to yield a master stock solution which was diluted further in DMSO to stock solutions needed for the lower concentrations. Final dilutions in extracellular buffer were prepared freshly from these stocks by a 1:1000 dilution step each before starting the experiments.
Data analysis and IC50 determination:
Peak current amplitudes were measured 3 ms after the ramp to +40 mV. For baseline and each concentration the peak currents of the three last sweeps before application of the next concentration were averaged. Residual currents ( 1/10) were calculated for each cell as the fraction of actual average peak current and average baseline peak current.
The logistic concentration-response curve of the following form was fitted to the residual current data using a genetic algorithm:
C: actual concentration of compound (in μM) IC50: half-inhibitory concentration (in μM) p: Hill slope

[1] = Metabolic stability in pooled liver microsomes; assay type: in vitro ADME; details: human liver microsomes, 37° C., 1 mg/mL microsomal protein, test compound 1 μM, NADPH
Experimental: The metabolic stability of the compounds according to the invention has been investigated as follows:
The metabolic degradation of the test compound was assayed at 37° C. with pooled liver microsomes from various species. The final incubation volume of 100 μl per time point contains TRIS buffer pH 7.6 at room temperature (0.1 M), magnesium chloride (5 mM), microsomal protein (1 mg/mL for human and dog, 0.5 mg/mL for other species) and the test compound at a final concentration of 1 μM. Following a short preincubation period at 37° C., the reactions were initiated by addition of betanicotinamide adenine dinucleotide phosphate, reduced form (NADPH, 1 mM), and terminated by transferring an aliquot into solvent after different time points. […] The half-life was determined by the slope of the semi-logarithmic plot of the concentration-time profile.

[2] = Animal experiments and sample analysis: plasma, brain and CSF concentration; assay type: in vivo; details: rat; for concentration at 2 h / Kp at 2 h: 2 h between administration and CSF sampling; for concentration at 2 h / concentration at 0.5 h: doses of 10.0 or 5 μmol/kg; for concentration at 0.5 h: 0.5 h between administration and CSF sampling
Experimental: Test compounds were administered to animals (rat) different routes at doses of 10.0 or 5 μmol/kg, (both oral and intravenous). After compound administration, the animals were sacrificed in a CO2 chamber and CSF samples were carefully collected by puncture of the cisterna magna. Immediately after CSF sampling, blood was taken by heart puncture and brains were dissected out. Blood was collected in EDTA-coated microvettes and plasma was prepared by centrifugation. Concentration of the test compounds in plasma, CSF or brain homogenate was determined using HPLC-MS-MS.

[3] = brain, read-out: c(brain)/c(plasma)

Chain of PDE10 (Q9Y233 whole entry, species assumed): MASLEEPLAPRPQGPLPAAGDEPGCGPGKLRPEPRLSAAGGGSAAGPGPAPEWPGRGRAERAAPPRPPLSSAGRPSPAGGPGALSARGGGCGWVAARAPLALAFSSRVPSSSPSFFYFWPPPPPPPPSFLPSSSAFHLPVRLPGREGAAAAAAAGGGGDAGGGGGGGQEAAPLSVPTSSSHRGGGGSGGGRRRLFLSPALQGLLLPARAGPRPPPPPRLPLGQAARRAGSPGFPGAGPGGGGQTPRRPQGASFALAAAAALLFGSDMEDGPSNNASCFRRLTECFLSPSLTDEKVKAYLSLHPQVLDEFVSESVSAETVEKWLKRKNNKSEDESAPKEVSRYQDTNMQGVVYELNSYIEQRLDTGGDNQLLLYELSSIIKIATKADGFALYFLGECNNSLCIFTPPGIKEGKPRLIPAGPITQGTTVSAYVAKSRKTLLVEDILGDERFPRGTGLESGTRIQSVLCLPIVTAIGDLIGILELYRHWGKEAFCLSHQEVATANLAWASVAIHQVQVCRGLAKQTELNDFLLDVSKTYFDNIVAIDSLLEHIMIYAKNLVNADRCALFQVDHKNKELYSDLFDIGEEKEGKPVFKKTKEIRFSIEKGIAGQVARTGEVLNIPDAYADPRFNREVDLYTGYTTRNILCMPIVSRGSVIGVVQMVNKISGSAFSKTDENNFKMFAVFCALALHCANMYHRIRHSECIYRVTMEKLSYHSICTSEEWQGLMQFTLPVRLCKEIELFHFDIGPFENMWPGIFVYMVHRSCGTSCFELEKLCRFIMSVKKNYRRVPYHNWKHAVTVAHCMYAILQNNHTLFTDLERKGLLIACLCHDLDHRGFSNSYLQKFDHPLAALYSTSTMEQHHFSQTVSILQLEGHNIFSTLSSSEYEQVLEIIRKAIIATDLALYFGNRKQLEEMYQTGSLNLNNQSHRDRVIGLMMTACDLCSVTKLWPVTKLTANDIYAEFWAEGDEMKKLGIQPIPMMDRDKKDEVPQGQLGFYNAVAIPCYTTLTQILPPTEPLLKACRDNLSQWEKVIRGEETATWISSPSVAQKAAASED
Chain of hERG channel (Q12809 whole entry): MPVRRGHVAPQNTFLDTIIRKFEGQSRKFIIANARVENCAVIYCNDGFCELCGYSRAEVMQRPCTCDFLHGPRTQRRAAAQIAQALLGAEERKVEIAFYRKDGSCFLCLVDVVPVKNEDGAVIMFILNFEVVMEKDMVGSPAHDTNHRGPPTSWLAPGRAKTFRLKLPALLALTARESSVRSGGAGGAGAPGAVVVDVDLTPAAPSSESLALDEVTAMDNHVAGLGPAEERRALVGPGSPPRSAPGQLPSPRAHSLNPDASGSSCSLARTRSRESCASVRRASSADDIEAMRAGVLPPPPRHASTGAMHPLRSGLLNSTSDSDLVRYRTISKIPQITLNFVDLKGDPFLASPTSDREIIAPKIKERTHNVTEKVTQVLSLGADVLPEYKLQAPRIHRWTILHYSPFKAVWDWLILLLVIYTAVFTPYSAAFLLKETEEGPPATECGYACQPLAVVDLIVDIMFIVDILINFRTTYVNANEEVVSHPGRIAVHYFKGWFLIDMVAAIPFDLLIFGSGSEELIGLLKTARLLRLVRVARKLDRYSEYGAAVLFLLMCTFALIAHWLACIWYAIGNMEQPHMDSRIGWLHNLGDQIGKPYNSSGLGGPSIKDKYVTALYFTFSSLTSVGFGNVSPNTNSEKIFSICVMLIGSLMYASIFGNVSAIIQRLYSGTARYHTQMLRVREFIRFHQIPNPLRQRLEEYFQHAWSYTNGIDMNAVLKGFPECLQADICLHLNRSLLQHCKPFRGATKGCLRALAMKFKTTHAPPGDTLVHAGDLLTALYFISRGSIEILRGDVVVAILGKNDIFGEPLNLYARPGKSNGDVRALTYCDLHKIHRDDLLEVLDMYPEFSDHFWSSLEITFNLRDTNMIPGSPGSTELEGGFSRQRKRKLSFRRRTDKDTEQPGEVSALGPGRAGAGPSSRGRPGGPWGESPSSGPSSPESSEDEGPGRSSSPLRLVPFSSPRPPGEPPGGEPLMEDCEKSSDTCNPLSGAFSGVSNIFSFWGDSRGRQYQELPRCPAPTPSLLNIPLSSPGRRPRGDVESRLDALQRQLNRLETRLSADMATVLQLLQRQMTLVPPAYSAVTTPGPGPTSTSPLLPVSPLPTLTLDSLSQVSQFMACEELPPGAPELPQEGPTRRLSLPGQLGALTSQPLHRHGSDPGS
Chain of PDE2A (O00408 whole entry, species assumed): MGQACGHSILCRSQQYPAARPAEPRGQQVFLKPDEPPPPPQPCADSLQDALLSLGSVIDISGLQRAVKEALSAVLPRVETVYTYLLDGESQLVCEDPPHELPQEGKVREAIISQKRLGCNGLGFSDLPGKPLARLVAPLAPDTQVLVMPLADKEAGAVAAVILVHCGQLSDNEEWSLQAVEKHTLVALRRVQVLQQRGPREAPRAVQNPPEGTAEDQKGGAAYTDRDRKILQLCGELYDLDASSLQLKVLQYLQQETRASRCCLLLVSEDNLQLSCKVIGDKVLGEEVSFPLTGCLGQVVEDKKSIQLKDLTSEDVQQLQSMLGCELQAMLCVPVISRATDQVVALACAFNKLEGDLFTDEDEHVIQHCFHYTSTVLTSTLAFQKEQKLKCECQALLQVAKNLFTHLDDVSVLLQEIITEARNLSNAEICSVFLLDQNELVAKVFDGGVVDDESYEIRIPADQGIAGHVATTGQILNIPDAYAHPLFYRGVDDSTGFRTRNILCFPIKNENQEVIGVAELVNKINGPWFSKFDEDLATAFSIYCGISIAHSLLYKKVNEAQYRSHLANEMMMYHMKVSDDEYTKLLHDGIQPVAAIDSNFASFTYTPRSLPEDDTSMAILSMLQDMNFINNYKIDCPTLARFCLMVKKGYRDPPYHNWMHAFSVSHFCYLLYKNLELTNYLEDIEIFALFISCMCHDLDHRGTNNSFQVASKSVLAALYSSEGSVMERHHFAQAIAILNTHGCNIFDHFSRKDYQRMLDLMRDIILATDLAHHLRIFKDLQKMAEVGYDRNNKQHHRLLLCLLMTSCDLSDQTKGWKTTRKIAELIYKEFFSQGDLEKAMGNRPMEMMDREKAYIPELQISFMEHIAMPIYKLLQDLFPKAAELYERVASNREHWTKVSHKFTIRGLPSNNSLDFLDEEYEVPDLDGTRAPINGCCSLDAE

SMILES: Cc1nc2ccc(C3CC3)nc2n2c(-c3cc(C4(O)CCC4)ccc3F)nnc12 [Example 84]
pIC50 (PDE10): 6.25
pIC50 (PDE2A): 8.22
pIC50 (hERG channel): 5.20

SMILES: Cc1nc2cccnc2n2c(-c3cc(CCC(C)(C)O)ccc3Cl)nnc12 [Example 64]
pIC50 (PDE10): 5.41
Half-life - t½ [1]: 2.17 h
pIC50 (PDE2A): 7.35
concentration at 2 h ([2]; brain, read-out: conc brain): 254 nM
Kp at 2 h [2, 3]: 0.5
concentration at 2 h ([2]; plasma, read-out: conc plasma): 783 nM
concentration at 2 h ([2]; read-out: conc CSF): 37 nM
Kp at 2 h ([2]; read-out: c(CSF)/c(plasma)): 0.06
pIC50 (hERG channel): < 5.00

SMILES: Cc1nc2cccnc2n2c(-c3cc(C4(O)CCOCC4)ccc3Cl)nnc12 [Example 93]
pIC50 (PDE10): 5.21
Half-life - t½ [1]: 2.17 h
pIC50 (PDE2A): 7.07
pIC50 (hERG channel): < 5.00

SMILES: Cc1nc2ccc(C3CC3)nc2n2c(-c3cc(OCC(C)(C)O)ccc3F)nnc12 [Example 47]
pIC50 (PDE10): 6.07
Half-life - t½ [1]: 2.17 h
pIC50 (PDE2A): 8.10
concentration at 2 h ([2]; brain, read-out: conc brain): 441 nM
Kp at 2 h [2, 3]: 0.7
concentration at 2 h ([2]; plasma, read-out: conc plasma): 622 nM
concentration at 2 h ([2]; read-out: conc CSF): 22 nM
Kp at 2 h ([2]; read-out: c(CSF)/c(plasma)): 0.04
pIC50 (hERG channel): < 5.00

SMILES: Cc1nc2cccnc2n2c(-c3cc(OC[C@H](C)O)ccc3Cl)nnc12 [Example 18]
Half-life - t½ [1]: 2.17 h
concentration at 0.5 h ([2]; brain, read-out: conc brain): 351 nM
concentration at 0.5 h ([2]; plasma, read-out: conc plasma): 1220 nM
concentration at 0.5 h ([2]; read-out: conc CSF): 163 nM
pIC50 (hERG channel): < 5.00

SMILES: Cc1ccc2nc(C)c3nnc(-c4cc(OCCO)ccc4Cl)n3c2n1 [Example 28]
pIC50 (hERG channel): < 5.00

SMILES: Cc1ccc2nc(C)c3nnc(-c4cc(OC5CCOCC5)ccc4Cl)n3c2n1 [Example 32]
Half-life - t½ [1]: 2.17 h
pIC50 (hERG channel): < 5.00

SMILES: Cc1nc2ccc(C3CC3)nc2n2c(-c3cc(OC4CCOCC4)ccc3Cl)nnc12 [Example 32a]
pIC50 (PDE10): 5.13
pIC50 (hERG channel): < 5.00

SMILES: Cc1nc2cccnc2n2c(-c3cc(CC(C)(C)O)ccc3Cl)nnc12 [Example 82]
pIC50 (PDE10): 5.25
Half-life - t½ [1]: 2.17 h
pIC50 (PDE2A): 6.70
pIC50 (hERG channel): < 5.00

SMILES: Cc1nc2cccnc2n2c(-c3cc(OC4COCC4O)ccc3Cl)nnc12 (racemic) [Example 55]
Half-life - t½ [1]: 2.17 h
pIC50 (hERG channel): < 5.00

SMILES: Cc1nc2cccnc2n2c(-c3cc(C4(O)CCC4)ccc3Cl)nnc12 [Example 87]
pIC50 (PDE10): 5.59
Half-life - t½ [1]: 2.17 h
pIC50 (PDE2A): 7.13
pIC50 (hERG channel): < 5.00

More lines, main results first:

Half-life - t½ [1]: 2.17 h
concentration at 2 h ([2]; brain, read-out: conc brain): 183 nM
concentration at 2 h ([2]; plasma, read-out: conc plasma): 801 nM
concentration at 2 h ([2]; read-out: conc CSF): 25 nM
SMILES: Cc1nc2ccc(C3CC3)nc2n2c(-c3cc(OCC(C)(C)O)ccc3Cl)nnc12 [Example 45]
pIC50 (hERG channel): < 5.00

Half-life - t½ [1]: 2.17 h
concentration at 2 h ([2]; brain, read-out: conc brain): 383 nM
Kp at 2 h [2, 3]: 0.34
concentration at 2 h ([2]; plasma, read-out: conc plasma): 1130 nM
concentration at 2 h ([2]; read-out: conc CSF): 31 nM
Kp at 2 h ([2]; read-out: c(CSF)/c(plasma)): 0.03
SMILES: Cc1ccc(C(C)(C)O)cc1-c1nnc2c(C)nc3ccc(C4CC4)nc3n12 [Example 75]
pIC50 (hERG channel): < 5.00

pIC50 (PDE10): 5.36
Half-life - t½ [1]: 2.17 h
pIC50 (PDE2A): 8.22
SMILES: Cc1nc2ccc(C3CC3)nc2n2c(-c3cc(C(C)(C)O)ccc3Cl)nnc12 [Example 85]
pIC50 (hERG channel): < 5.00

pIC50 (PDE2A): 9.00
SMILES: Cc1nc2ccc(C3CC3)nc2n2c(-c3cc(C4(O)CCC4)ccc3Cl)nnc12 [Example 88]
pIC50 (hERG channel): < 5.00

pIC50 (PDE10): 5.27
pIC50 (PDE2A): 8.00
SMILES: Cc1nc2ccc(C3CC3)nc2n2c(-c3cc(CC(C)(C)O)ccc3F)nnc12 [Example 80]
pIC50 (hERG channel): < 5.00

pIC50 (PDE10): 5.05
pIC50 (PDE2A): 8.40
SMILES: Cc1nc2ccc(C3CC3)nc2n2c(-c3cc(CC(C)(C)O)ccc3Cl)nnc12 [Example 83]
pIC50 (hERG channel): < 5.00

pIC50 (PDE10): 6.00
pIC50 (PDE2A): 8.70
SMILES: Cc1ccc(CCC(C)(C)O)cc1-c1nnc2c(C)nc3ccc(C4CC4)nc3n12 [Example 68]
pIC50 (hERG channel): 5.08

pIC50 (PDE10): 6.17
pIC50 (PDE2A): 8.52
SMILES: Cc1nc2ccc(C3CC3)nc2n2c(-c3cc(CCC(C)(C)O)ccc3F)nnc12 [Example 66]
pIC50 (hERG channel): < 5.00

Half-life - t½ [1]: 2.17 h
pIC50 (PDE2A): 8.10
SMILES: Cc1ccc(OCC(C)(C)O)cc1-c1nnc2c(C)nc3ccc(C4CC4)nc3n12 [Example 48]
pIC50 (hERG channel): < 5.00
